Data as given in patent US8614236B2 (University of Washington, priority 2006, dated 2013).
Entries after “also recorded” stand apart in the source; their conditions may differ.

What was measured:
PASMCs [1] = assay: Hypoxia-induced increase in [Ca2+]i in PASMCs (4% O2); format: cell-based, rat; settings: 10-100 μM
Description: (§1) Intrapulmonary arteries (200-600 μm o.d.) were isolated from male Wistar rats (250-350 g) and cleaned of connective tissue. After the lumen was gently rubbed with a cotton swab to remove the endothelial cells, the arteries were allowed to recover for 30 minutes in cold (4° C.) HBSS containing (in mM): 130 NaCl, 5 KCl, 1.2 MgCl2, 1.5 CaCl2, 10 N-[2-hydroxyethyl]piperazine-N′-[2-ethanesulfonic acid] (HEPES) and 10 glucose, with pH adjusted to 7.2 with 5 M NaOH, followed by 20 minutes in reduced-Ca^2+ (20 μM CaCl2) HBSS at room temperature. […] Following digestion, single smooth muscle cells were dispersed by gentle trituration with a wide-bore transfer pipette in Ca^2+-free HBSS and the cell suspension was placed on 25 mm glass cover slips. PASMCs were transiently cultured in Ham's-F-12 media supplemented with 0.5% fetal bovine serum and 1% penicillin/streptomycin for 24-48 hrs. before study.
(§2) Acute hypoxia increases intracellular [Ca^2+] in pulmonary arterial smooth muscle by enhancing capacitative Ca^2+ entry. […] Ratiometric measurement of fluorescence from the dye was performed on a workstation (Intracellular Imaging Inc, Cincinnati, Ohio) consisting of a Nikon TSE 100 Ellipse inverted microscope with epi-fluorescence attachments. The light beam from a xenon arc lamp was filtered at 340 and 380 nm, and focused onto the PASMCS under examination via a 20× fluorescence objective (Super Fluor 20, Nikon). Light emitted from the cell at 510 nm was returned through the objective and detected by a cooled CCD imaging camera. An electronic shutter (Sutter Instruments) was used to minimize photobleaching of dye. Protocols were executed and data collected on-line with InCyte software (Intracellular Imaging Inc). [Ca^2+]i was estimated from in vitro calibration solutions.

PASMCs [2] = assay: KCl-induced Ca2+ responses in PASMCs; format: cell-based, rat
Description: as §1, §2

Beagle dogs [3] = assay: Dog study: pulmonary and systemic hemodynamics, hypoxic pulmonary vasoconstriction; format: in vivo; settings: for MPAP and PVR during hypoxia (words): iv bolus + continuous infusion (AZ, benzolamide 2 mg/kg + 2 mg/kg/h; ethoxzolamide 1 mg/kg + 1 mg/kg/h)
Description: (§3) A total of 30 experiments were performed on six female Beagle dogs (body wt 14.3±0.3 kg). The dogs were kept under highly standardized conditions and received a standardized diet five days before the experiments. The preparation and catheterization of the conscious dog were performed according to former experiments as in Höhne C., et al., J Appl Physiol (2004), which is hereby incorporated by reference in its entirety. To permit spontaneous breathing through a low resistance circuit, a face mask was attached, which enclosed the dog's snout in a leak proof fashion. This custom made mask is equipped with a 2.5 cm ID connector to connect it to a ventilator set to CPAP mode (3 4 cmH20) (Servo900C; Siemens-Elema, Erlangen/Germany).
(§4) Six dogs were studied in five different protocols in randomized order:
(§5) 4) Benzolamide intravenously: Bolus (2 mg/kg), followed by a continuous infusion of 2 mg·kg^−1·h^−1, a dosage which inhibits only renal and vascular endothelial extracellular CA, without affecting red cell CA as in Travis D. M., et al. J Pharmacol Exp Ther (1964), which is hereby incorporated by reference in its entirety. 5) Ethoxzolamide (Sigma-Aldrich, Steinheim/Germany) intravenously: Bolus ethoxzolamide (1 mg/kg), followed by a continuous infusion of 1 mg·kg^−1·h^−1.
(§6) In control experiments, the dogs breathed room air (21% O2, 79% N2; normoxia) for one hour, followed by breathing a gas mixture containing 10% O2 and 90% N2 for two hours (hypoxia). The time course was the same for the CA inhibitor experiments, but F1O2 was reduced to 0.09 during the hypoxia period to match the arterial and alveolar PO2 of the control dogs, which otherwise would have been higher on 10% O2 as a result of the known ventilatory stimulant effect of all CA inhibitors. See Höhne C., et al., J Appl Physiol 97:515-521 (2004), which is hereby incorporated by reference in its entirety. The hemodynamic measurements (arterial blood pressure, heart rate, central venous pressure, pulmonary artery pressure, pulmonary capillary wedge pressure), minute ventilation, renal function data, time points for blood samples for blood gases, actual bicarbonate, base excess, plasma electrolytes and hormones, measurements of plasma and urinary values were according to former studies. See Höhne C., et al., J Appl Physiol 90:1842-1848 (2001), which is hereby incorporated by reference in its entirety.
(§7) Values are given as means±SEM (n=6). For intra-group comparisons a general linear model of analysis of variance (GLM-ANOVA) for repeated measures was applied (NCSS97/PASS 2000, Saugus/MA, USA). Post-hoc testing of means was performed with Student's t-test. Level of significance for error of first order was adjusted according to Holm's procedure. Statistical significance was assumed at p<0.05.

Beagle dogs [4] = assay: Dog study: arterial blood gases, ventilation and acid-base status in normoxia and hypoxia; format: in vivo; settings: po 5 mg/kg 12 and 1 hr before; hypoxia 3rd h
Beagle dogs [5] = assay: Dog study: plasma hormones, electrolytes and renal function; format: in vivo; settings: for plasma renin activity: both acetazolamide protocols (iv, po)
Description: as §3, §4, §5, §6, §7

[6] = iv bolus + continuous infusion, hypoxia 2nd h
[7] = iv bolus + continuous infusion, hypoxia 3rd h
[8] = iv bolus + continuous infusion, normoxia 1st h
[9] = po 5 mg/kg 12 and 1 hr before, hypoxia 2nd h
[10] = po 5 mg/kg 12 and 1 hr before, hypoxia 3rd h
[11] = po 5 mg/kg 12 and 1 hr before, normoxia 1st h

CC(=O)Nc1nnc(S(N)(=O)=O)s1 [AZ, acetazolamide]
effect on hypoxia-induced increase in [Ca^2+]i (PASMCs [1]): almost complete blockade; also recorded: significant reduction | effect on KCl-induced increase in [Ca^2+]i (PASMCs [2]; 100 μM): no effect; also recorded: not altered | [Ca^2+]i after KCl (PASMCs [2]; KCl 60 mM, pretreatment 100 μM): 292.6 ± 21.2 nM | mean change in [Ca^2+]i in response to KCl (PASMCs [2]; KCl 60 mM, pretreatment 100 μM, control 123.4±20.6 nM): 134.7 ± 18.2 nM | [Ca^2+]i before KCl (PASMCs [2]; pretreatment 100 μM): 157.8 ± 11.9 nM | MPAP and PVR during hypoxia (words) (Beagle dogs [3]): did not change | MPAP and PVR during hypoxia (words) (Beagle dogs [3]; listed as acetazolamide): still inhibited | CO, cardiac output (Beagle dogs [3]; [6]): 2.6 ± 0.2 L/min | CVP, central venous pressure (Beagle dogs [3]; [6]): 2.6 ± 0.6 cmH2O | HR, heart rate (Beagle dogs [3]; [6]): 92 ± 9 beats/min | MAP, mean arterial pressure (Beagle dogs [3]; [6]): 109 ± 7 mmHg | MPAP, mean pulmonary arterial pressure (Beagle dogs [3]; [6]): 15 ± 1 mmHg | PCWP, pulmonary capillary wedge pressure (Beagle dogs [3]; [6]): 3.5 ± 0.3 cm H2O | SVR, systemic vascular resistance (Beagle dogs [3]; [6]): 3348 ± 260 dyn · s^1 · cm^−5 | CO, cardiac output (Beagle dogs [3]; [7]): 2.4 ± 0.1 L/min | CVP, central venous pressure (Beagle dogs [3]; [7]): 1.8 ± 0.5 cmH2O | HR, heart rate (Beagle dogs [3]; [7]): 98 ± 8 beats/min | MAP, mean arterial pressure (Beagle dogs [3]; [7]): 111 ± 6 mmHg | MPAP, mean pulmonary arterial pressure (Beagle dogs [3]; [7]): 14 ± 1 mmHg | PCWP, pulmonary capillary wedge pressure (Beagle dogs [3]; [7]): 3.3 ± 0.2 cm H2O | SVR, systemic vascular resistance (Beagle dogs [3]; [7]): 3675 ± 241 dyn · s^1 · cm^−5 | CO, cardiac output (Beagle dogs [3]; [8]): 2.4 ± 0.2 L/min | CVP, central venous pressure (Beagle dogs [3]; [8]): 1.8 ± 0.3 cmH2O | HR, heart rate (Beagle dogs [3]; [8]): 70 ± 5 beats/min | MAP, mean arterial pressure (Beagle dogs [3]; [8]): 97 ± 4 mmHg | MPAP, mean pulmonary arterial pressure (Beagle dogs [3]; [8]): 14 ± 0 mmHg | PCWP, pulmonary capillary wedge pressure (Beagle dogs [3]; [8]): 3.5 ± 0.6 cm H2O | SVR, systemic vascular resistance (Beagle dogs [3]; [8]): 3347 ± 260 dyn · s^1 · cm^−5 | PVR during hypoxia (Beagle dogs [3]; po 5 mg/kg 12 and 1 hr before): did not change | MPAP during hypoxia (Beagle dogs [3]; po 5 mg/kg 12 and 1 hr before, after 2 hrs of hypoxia): increased slightly | CO, cardiac output (Beagle dogs [3]; [9]): 2.8 ± 0.2 L/min | CVP, central venous pressure (Beagle dogs [3]; [9]): 1.5 ± 0.2 cmH2O | HR, heart rate (Beagle dogs [3]; [9]): 101 ± 9 beats/min | MAP, mean arterial pressure (Beagle dogs [3]; [9]): 110 ± 5 mmHg | MPAP, mean pulmonary arterial pressure (Beagle dogs [3]; [9]): 17 ± 1 mmHg | PCWP, pulmonary capillary wedge pressure (Beagle dogs [3]; [9]): 3.3 ± 0.3 cm H2O | SVR, systemic vascular resistance (Beagle dogs [3]; [9]): 3238 ± 326 dyn · s^1 · cm^−5 | CO, cardiac output (Beagle dogs [3]; [10]): 2.7 ± 0.3 L/min | CVP, central venous pressure (Beagle dogs [3]; [10]): 1.3 ± 0.2 cmH2O | HR, heart rate (Beagle dogs [3]; [10]): 103 ± 7 beats/min | MAP, mean arterial pressure (Beagle dogs [3]; [10]): 108 ± 7 mmHg | MPAP, mean pulmonary arterial pressure (Beagle dogs [3]; [10]): 17 ± 2 mmHg | PCWP, pulmonary capillary wedge pressure (Beagle dogs [3]; [10]): 3.6 ± 0.4 cm H2O | SVR, systemic vascular resistance (Beagle dogs [3]; [10]): 3270 ± 380 dyn · s^1 · cm^−5 | CO, cardiac output (Beagle dogs [3]; [11]): 2.5 ± 0.2 L/min | CVP, central venous pressure (Beagle dogs [3]; [11]): 2.0 ± 0.3 cmH2O | HR, heart rate (Beagle dogs [3]; [11]): 78 ± 5 beats/min | MAP, mean arterial pressure (Beagle dogs [3]; [11]): 99 ± 1 mmHg | MPAP, mean pulmonary arterial pressure (Beagle dogs [3]; [11]): 12 ± 1 mmHg | PCWP, pulmonary capillary wedge pressure (Beagle dogs [3]; [11]): 3.5 ± 0.3 cm H2O | SVR, systemic vascular resistance (Beagle dogs [3]; [11]): 3301 ± 320 dyn · s^1 · cm^−5 | HCO3a, arterial actual bicarbonate concentration (Beagle dogs [4]): 16.9 ± 0.5 mM | plasma renin activity (Beagle dogs [5]; hypoxia): 5 to 5.6 ng/mL/h | plasma renin activity (Beagle dogs [5]; normoxia): 2.9 to 3.2 ng/mL/h | reduction of glomerular filtration rate vs controls (Beagle dogs [5]; iv 2 mg/kg + 2 mg/kg/h, non-significant): 12% | GFR, glomerular filtration rate (Beagle dogs [5]; [6]): 3.3 ± 0.1 mL/min/kg | PK, plasma potassium concentration (Beagle dogs [5]; [6]): 2.8 ± 0.1 mM | UV, urine volume (Beagle dogs [5]; [6]): 0.161 ± 0.022 mL/min/kg | GFR, glomerular filtration rate (Beagle dogs [5]; [7]): 3.4 ± 0.2 mL/min/kg | PK, plasma potassium concentration (Beagle dogs [5]; [7]): 2.8 ± 0.1 mM | UV, urine volume (Beagle dogs [5]; [7]): 0.071 ± 0.01 mL/min/kg | GFR, glomerular filtration rate (Beagle dogs [5]; [8]): 3.4 ± 0.1 mL/min/kg | PK, plasma potassium concentration (Beagle dogs [5]; [8]): 3.0 ± 0.1 mM | UV, urine volume (Beagle dogs [5]; [8]): 0.099 ± 0.013 mL/min/kg | GFR, glomerular filtration rate (Beagle dogs [5]; [9]): 3.4 ± 0.3 mL/min/kg | PK, plasma potassium concentration (Beagle dogs [5]; [9]): 2.9 ± 0.1 mM | UKV, urinary potassium concentration (Beagle dogs [5]; [9]): 1.6 ± 0.3 µmol/min/kg | UV, urine volume (Beagle dogs [5]; [9]): 0.083 ± 0.024 mL/min/kg | urinary excretion rate (potassium in 2.2, sodium in 2.3) (Beagle dogs [5]; [9]): 1.6 ± 0.3 µmol/min/kg | GFR, glomerular filtration rate (Beagle dogs [5]; [10]): 3.3 ± 0.2 mL/min/kg | PK, plasma potassium concentration (Beagle dogs [5]; [10]): 2.9 ± 0.1 mM | UKV, urinary potassium concentration (Beagle dogs [5]; [10]): 1.6 ± 0.4 µmol/min/kg | UV, urine volume (Beagle dogs [5]; [10]): 0.048 ± 0.011 mL/min/kg | urinary excretion rate (potassium in 2.2, sodium in 2.3) (Beagle dogs [5]; [10]): 1.3 ± 0.1 µmol/min/kg | GFR, glomerular filtration rate (Beagle dogs [5]; [11]): 3.1 ± 0.2 mL/min/kg | PK, plasma potassium concentration (Beagle dogs [5]; [11]): 2.9 ± 0.1 mM | UV, urine volume (Beagle dogs [5]; [11]): 0.057 ± 0.011 mL/min/kg
